Assay results taken from paper PMC6718736, “Validation of in vitro methods for human cytochrome P450 enzyme induction: Outcome of a multi-laboratory study” (Toxicology in Vitro, 2019).
“Also recorded” adds a separate entry of the source. Where two headings read alike, the source gives them in different places.

Experiments:
CYP1A2 [1] = experiment: CYP1A2 enzyme induction assay in cryopreserved HepaRG cells (phenacetin probe, LC/MS); type: in vitro ADME, human; conditions: for Prediction in vivo inducer / F2 / Induction in vitro: CYP1A2, HepaRG cells; for Prediction in vivo inducer: Cmax/F2 >0.5 criterion; for F2: in vitro concentration producing 2-fold induction; for Induction in vitro: positive in one batch in each of the three laboratories; for Assigned classification CYP1A2: HepaRG; as to Assigned classification CYP1A2: key: 1=Positive=inducer; 0=Negative=non-inducer
CYP = CYP isoforms induced; ref Abadie et al. (2009), Richert et al. (2010), Preissner et al. (2010), Hoffmann et al. (2014); cited from earlier work
[2] = cited from earlier work
CYP1A2 [3] = experiment: CYP1A2 enzyme induction assay in cryopreserved primary human hepatocytes (PHH); type: in vitro ADME; conditions: for Prediction in vivo inducer / Induction in vitro: CYP1A2, PHH; for Prediction in vivo inducer: Cmax/F2 >0.5 criterion; for Induction in vitro: positive in one donor in each of the three laboratories; for Assigned classification CYP1A2: PHH;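 as to Assigned classification CYP1A2: code 1 means positive inducer and 0 means non-inducer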
CYP3A4 [4] = conditions: cited from earlier work
CYP2B6 [5] = experiment: CYP2B6 enzyme induction assay in cryopreserved HepaRG cells (bupropion probe, LC/MS); type: in vitro ADME, human; conditions: for Prediction in vivo inducer / F2 / Induction in vitro: CYP2B6, HepaRG cells; for Prediction in vivo inducer: Cmax/F2 >0.5 criterion; for F2: in vitro concentration producing 2-fold induction; for Induction in vitro: positive in one batch in each of the three laboratories; for Assigned classification CYP2B6: HepaRG; as to Assigned classification CYP2B6: key: 1=Positive=inducer; 0=Negative=non-inducer
CYP2B6 [6] = experiment: CYP2B6 enzyme induction assay in cryopreserved primary human hepatocytes (PHH); type: in vitro ADME; conditions: for F2 / Induction in vitro / Prediction in vivo inducer: CYP2B6, PHH; for Assigned classification CYP2B6: PHH;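 as to Assigned classification CYP2B6: code 1 means positive inducer and 0 means non-inducer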
CYP3A4 [7] = experiment: CYP3A4 enzyme induction assay in cryopreserved HepaRG cells (midazolam probe, LC/MS); type: in vitro ADME, human; conditions: for Assigned classification CYP3A4: HepaRG; as to Assigned classification CYP3A4: key: 1=Positive=inducer; 0=Negative=non-inducer
CYP3A4 [8] = experiment: CYP3A4 enzyme induction assay in cryopreserved primary human hepatocytes (PHH); conditions: for Assigned classification CYP3A4: PHH
CYP2B6 [9] = conditions: cited from earlier work
CYP1A2 [10] = conditions: cited from earlier work
[11] = human in vivo plasma concentration, normal dose
[12] = human in vivo, normal dose (Table 10)
[13] = human in vivo, CYP named without remark = induced, ref references in the cell, Washington University database, Hoffmann et al. (2014), Pelkonen et al. (2008), Hukkanen et al. (2012)

## COc1ccccc1Oc1c(NS(=O)(=O)c2ccc(C(C)(C)C)cc2)nc(-c2ncccn2)nc1OCCO [Bosentan hydrate]
CYP1A2 [1]; listed as Bosentan
  Prediction in vivo inducer: Yes
CYP1A2 [1]; listed as bosentan
  Prediction in vivo inducer: CYP1A2 induction would be expected
CYP1A2 [1]
  F2: 2.60 to 7.80 µM
  Induction in vitro: Yes
CYP1A2 [1]; Lab 1, batch 20
  Assigned classification CYP1A2: 1
CYP1A2 [1]; Lab 1, batch 35
  Assigned classification CYP1A2: 1
CYP1A2 [1]; Lab 1, batch 36
  Assigned classification CYP1A2: 1
CYP1A2 [1]; Lab 2, batch 20
  Assigned classification CYP1A2: 1
CYP1A2 [1]; Lab 2, batch 35
  Assigned classification CYP1A2: 1
CYP1A2 [1]; Lab 2, batch 36
  Assigned classification CYP1A2: 1
CYP1A2 [1]; Lab 3, batch 20
  Assigned classification CYP1A2: 1
CYP1A2 [1]; Lab 3, batch 35
  Assigned classification CYP1A2: 1
CYP1A2 [1]; Lab 3, batch 36
  Assigned classification CYP1A2: 0
CYP
  CYP induction in vitro (human hepatocytes): CYP3A4
[2]; [11]
  Cmax: 5.8 µM
[2]; [12]
  Cmax: 5.8 µM
CYP1A2 [3]; listed as Bosentan
  Prediction in vivo inducer: No
CYP1A2 [3]; listed as bosentan
  Prediction in vivo inducer: non-inducers
CYP1A2 [3]
  Induction in vitro: No
CYP1A2 [3]; Lab 1, batch 0 6 A
  Assigned classification CYP1A2: 0
CYP1A2 [3]; Lab 1, batch 4 0 8
  Assigned classification CYP1A2: 0
CYP1A2 [3]; Lab 1, batch 8 0 8
  Assigned classification CYP1A2: 0
CYP1A2 [3]; Lab 2, batch 0 6 A
  Assigned classification CYP1A2: 0
CYP1A2 [3]; Lab 2, batch 4 0 8
  Assigned classification CYP1A2: 0
CYP1A2 [3]; Lab 2, batch 8 0 8
  Assigned classification CYP1A2: 1
CYP1A2 [3]; Lab 3, batch 0 6 A
  Assigned classification CYP1A2: 1
CYP1A2 [3]; Lab 3, batch 4 0 8
  Assigned classification CYP1A2: 0
CYP1A2 [3]; Lab 3, batch 8 0 8
  Assigned classification CYP1A2: 0
CYP3A4 [4]; CYP3A4, human in vivo reference classification (Table 11)
  Induction in vivo: Yes
CYP3A4 [4]; [13]
  CYP induction in vivo literature reference: CYP3A4: CYP1A2 NO studies CYP2B6 NO studies CYP 3A4 ([Weber et al., 1999a], [Weber et al., 1999b]; [van Giersbergen et al., 2002a], [van Giersbergen et al., 2002b]; Dingemanse and van Giersbergen, 2004)
CYP2B6 [5]; listed as Bosentan
  Prediction in vivo inducer: Yes
CYP2B6 [5]; listed as bosentan
  Prediction in vivo inducer: predicted as positive inducers
CYP2B6 [5]
  F2: 2.60 to 7.80 µM
  Induction in vitro: Yes
CYP2B6 [5]; Lab 1, batch 20
  Assigned classification CYP2B6: 1
CYP2B6 [5]; Lab 1, batch 35
  Assigned classification CYP2B6: 1
CYP2B6 [5]; Lab 1, batch 36
  Assigned classification CYP2B6: 0
CYP2B6 [5]; Lab 2, batch 20
  Assigned classification CYP2B6: 1
CYP2B6 [5]; Lab 2, batch 35
  Assigned classification CYP2B6: 0
CYP2B6 [5]; Lab 2, batch 36
  Assigned classification CYP2B6: 0
CYP2B6 [5]; Lab 3, batch 20
  Assigned classification CYP2B6: 0
CYP2B6 [5]; Lab 3, batch 35
  Assigned classification CYP2B6: 1
CYP2B6 [5]; Lab 3, batch 36
  Assigned classification CYP2B6: 0
CYP2B6 [6]
  F2: 5.85 µM
  Induction in vitro: Yes
  Prediction in vivo inducer: Yes
CYP2B6 [6]; Lab 1, batch 0 6 A
  Assigned classification CYP2B6: 1
CYP2B6 [6]; Lab 1, batch 4 0 8
  Assigned classification CYP2B6: 1
CYP2B6 [6]; Lab 1, batch 8 0 8
  Assigned classification CYP2B6: 1
CYP2B6 [6]; Lab 2, batch 0 6 A
  Assigned classification CYP2B6: 1
CYP2B6 [6]; Lab 2, batch 4 0 8
  Assigned classification CYP2B6: 0
CYP2B6 [6]; Lab 2, batch 8 0 8
  Assigned classification CYP2B6: 1
CYP2B6 [6]; Lab 3, batch 0 6 A
  Assigned classification CYP2B6: 1
CYP2B6 [6]; Lab 3, batch 4 0 8
  Assigned classification CYP2B6: 1
CYP2B6 [6]; Lab 3, batch 8 0 8
  Assigned classification CYP2B6: 1
CYP3A4 [7]; CYP3A4, HepaRG cells
  F2: 0.29 µM
  Induction in vitro: Yes
  Prediction in vivo inducer: Yes
CYP3A4 [7]; Lab 1, batch 20
  Assigned classification CYP3A4: 1
CYP3A4 [7]; Lab 1, batch 35
  Assigned classification CYP3A4: 1
CYP3A4 [7]; Lab 1, batch 36
  Assigned classification CYP3A4: 1
CYP3A4 [7]; Lab 2, batch 20
  Assigned classification CYP3A4: 1
CYP3A4 [7]; Lab 2, batch 35
  Assigned classification CYP3A4: 1
CYP3A4 [7]; Lab 2, batch 36
  Assigned classification CYP3A4: 1
CYP3A4 [7]; Lab 3, batch 20
  Assigned classification CYP3A4: 1
CYP3A4 [7]; Lab 3, batch 35
  Assigned classification CYP3A4: 1
CYP3A4 [7]; Lab 3, batch 36
  Assigned classification CYP3A4: 1
CYP3A4 [8]; CYP3A4, PHH
  F2: 0.65 to 1.95 µM
  Induction in vitro: Yes
  Prediction in vivo inducer: Yes
CYP3A4 [8]; Lab 1, batch 0 6 A
  Assigned classification CYP3A4: 1
CYP3A4 [8]; Lab 1, batch 4 0 8
  Assigned classification CYP3A4: 1
CYP3A4 [8]; Lab 1, batch 8 0 8
  Assigned classification CYP3A4: 1
CYP3A4 [8]; Lab 2, batch 0 6 A
  Assigned classification CYP3A4: 1
CYP3A4 [8]; Lab 2, batch 4 0 8
  Assigned classification CYP3A4: 1
CYP3A4 [8]; Lab 2, batch 8 0 8
  Assigned classification CYP3A4: 1
CYP3A4 [8]; Lab 3, batch 0 6 A
  Assigned classification CYP3A4: 1
CYP3A4 [8]; Lab 3, batch 4 0 8
  Assigned classification CYP3A4: 1
CYP3A4 [8]; Lab 3, batch 8 0 8
  Assigned classification CYP3A4: 1

## CO[C@H]1/C=C/O[C@@]2(C)Oc3c(C)c(O)c4c(O)c(c(/C=N/N5CCN(C)CC5)c(O)c4c3C2=O)NC(=O)/C(C)=C\C=C\[C@H](C)[C@H](O)[C@@H](C)[C@@H](O)[C@@H](C)[C@H](OC(C)=O)[C@@H]1C [Rifampicin]
CYP1A2 [1]
  Prediction in vivo inducer: Yes
  F2: 0.20 to 0.60 µM
  Induction in vitro: Yes
CYP1A2 [1]; Lab 1, batch 20
  Assigned classification CYP1A2: 1
CYP1A2 [1]; Lab 1, batch 35
  Assigned classification CYP1A2: 1
CYP1A2 [1]; Lab 1, batch 36
  Assigned classification CYP1A2: 1
CYP1A2 [1]; Lab 2, batch 20
  Assigned classification CYP1A2: 1
CYP1A2 [1]; Lab 2, batch 35
  Assigned classification CYP1A2: 1
CYP1A2 [1]; Lab 2, batch 36
  Assigned classification CYP1A2: 1
CYP1A2 [1]; Lab 3, batch 20
  Assigned classification CYP1A2: 1
CYP1A2 [1]; Lab 3, batch 35
  Assigned classification CYP1A2: 1
CYP1A2 [1]; Lab 3, batch 36
  Assigned classification CYP1A2: 1
[2]; [11]
  Cmax: 8 to 12 µM
[2]; [12]
  Cmax: 8 to 12 µM
CYP1A2 [3]
  Prediction in vivo inducer: No
  Induction in vitro: No
CYP1A2 [3]; listed as rifampicin
  Prediction in vivo inducer: non-inducer; also recorded: missed the in vivo prediction
CYP1A2 [3]; Lab 1, batch 0 6 A
  Assigned classification CYP1A2: 0
CYP1A2 [3]; Lab 1, batch 4 0 8
  Assigned classification CYP1A2: 0
CYP1A2 [3]; Lab 1, batch 8 0 8
  Assigned classification CYP1A2: 0
CYP1A2 [3]; Lab 2, batch 0 6 A
  Assigned classification CYP1A2: 0
CYP1A2 [3]; Lab 2, batch 4 0 8
  Assigned classification CYP1A2: 0
CYP1A2 [3]; Lab 2, batch 8 0 8
  Assigned classification CYP1A2: 1
CYP1A2 [3]; Lab 3, batch 0 6 A
  Assigned classification CYP1A2: 1
CYP1A2 [3]; Lab 3, batch 4 0 8
  Assigned classification CYP1A2: 0
CYP1A2 [3]; Lab 3, batch 8 0 8
  Assigned classification CYP1A2: 0
CYP2B6 [9]; CYP2B6, human in vivo reference classification
  Induction in vivo: Yes
CYP2B6 [9]; CYP2B6, human, ref Table 1
  Induction in vivo: Yes
CYP2B6 [9]; [13]
  CYP induction in vivo literature reference: CYP2B6: CYP2B6
CYP1A2 [10]; CYP1A2, human, ref Table 1
  Induction in vivo: Yes
CYP1A2 [10]; [13]
  CYP induction in vivo literature reference: CYP1A2: CYP1A2
CYP2B6 [5]
  Prediction in vivo inducer: Yes
  F2: 0.6 to 1.80 µM
  Induction in vitro: Yes
CYP2B6 [5]; listed as rifampicin
  Prediction in vivo inducer: correctly classified
CYP2B6 [5]; Lab 1, batch 20
  Assigned classification CYP2B6: 0
CYP2B6 [5]; Lab 1, batch 35
  Assigned classification CYP2B6: 1
CYP2B6 [5]; Lab 1, batch 36
  Assigned classification CYP2B6: 0
CYP2B6 [5]; Lab 2, batch 20
  Assigned classification CYP2B6: 1
CYP2B6 [5]; Lab 2, batch 35
  Assigned classification CYP2B6: 0
CYP2B6 [5]; Lab 2, batch 36
  Assigned classification CYP2B6: 1
CYP2B6 [5]; Lab 3, batch 20
  Assigned classification CYP2B6: 0
CYP2B6 [5]; Lab 3, batch 35
  Assigned classification CYP2B6: 0
CYP2B6 [5]; Lab 3, batch 36
  Assigned classification CYP2B6: 1
CYP2B6 [6]
  F2: 0.2 µM
  Induction in vitro: Yes
  Prediction in vivo inducer: Yes
CYP2B6 [6]; Cmax/F2 >0.5 criterion
  Prediction in vivo inducer: positive
CYP2B6 [6]; Lab 1, batch 0 6 A
  Assigned classification CYP2B6: 1
CYP2B6 [6]; Lab 1, batch 4 0 8
  Assigned classification CYP2B6: 1
CYP2B6 [6]; Lab 1, batch 8 0 8
  Assigned classification CYP2B6: 1
CYP2B6 [6]; Lab 2, batch 0 6 A
  Assigned classification CYP2B6: 1
CYP2B6 [6]; Lab 2, batch 4 0 8
  Assigned classification CYP2B6: 0
CYP2B6 [6]; Lab 2, batch 8 0 8
  Assigned classification CYP2B6: 1
CYP2B6 [6]; Lab 3, batch 0 6 A
  Assigned classification CYP2B6: 1
CYP2B6 [6]; Lab 3, batch 4 0 8
  Assigned classification CYP2B6: 1
CYP2B6 [6]; Lab 3, batch 8 0 8
  Assigned classification CYP2B6: 1
